Source: patent US20250236614A1, “BICYCLIC TETRAHYDROAZEPINE DERIVATIVES” (Hoffmann-La Roche Inc., priority 2022, published 2025)
Read-outs that look alike come from different tables or passages of the source.

What was measured:
primary human T-cells = experiment: IL2 secretion measurements in CD3-stimulated T-cells; assay type: cell-based; details: isomer A; for EC50: CD3 antibody-stimulated T-cells, IL2 in supernatant after 24 hours, read-out: Tcell IL2 CD3 EC50; for Emax: read-out: Emax IL2 (% activation)
Method: As readouts for T-cell activation, IL2 secretion after 24 hours and proliferation after 5 days was measured. Increases in IL2 secretion and proliferation upon compound treatment were assessed as the % of the maximum of reference compound A1. WO 2016/139181 discloses reference compound A1 as example 70. As a counter screen and to make sure that no unwanted TCR-independent activation was triggered, PBS conditions were run for all compounds.
Expanded primary human T-cells were thawed and cultured in RPMI 1640 (Gibco, #61870-010)+5% human serum (HS, Sigma, #H3667)+1 mM Sodium Pyruvate (Gibco, #11360-039)+50 μM 2-mercaptoethanol (Gibco, #31350-010) and lx Pen-Strep (Life Technologies, #15140122) medium at density of 2 Mio/ml for 3 hours in 5% CO2, 37° C. and 95% humidity. For coating of plates, […] or PBS++ with CD3 antibody (concentration depending on donor and determined by CD3 titrations) was added 100 μl/well to Poly-D Lysine coated 96-well plates. Plates were sealed and incubated at room temperature for 3 hours on a table-top rocking platform. After incubation, plates were washed once with PBS−− and filled with 40 μl/well culture medium only. Compounds were then added (see next section) to medium only plates. After 3 hours of culturing the T-cells, cells were filtered through a cell strainer (Miltenyi Biotech, #130-041-407), counted again and concentration was adjusted to 1.25 Mio/ml.
Cells were then seeded 80 μl/well to the 40 μl/well including dispensed compounds according to plate layout. By adding cells, compounds were further diluted 1:3, and resulting in 100k cells/120 μl/well. After 24 hours 40 μl of supernatant was collected carefully from the top while not disturbing the cells and transferred into a round bottom 96 well plate. Collected and frozen supernatant was used for detection of IL2 using the IL-2 Human ProQuantum Immunoassay Kit (Invitrogen) or using the Human IL-2 ELISA Kit (Thermo Fisher).
Compounds were added in a 5 or 6 pt dose response with the Tecan D300e Digital Dispenser, all conditions 3 times more concentrated than the end-concentration, since cells are added afterwards (80 μl cells to 40 μl prepared medium with treatment). The DR was starting at 20 μM or 10 μM final top concentration and a dilution factor of 3.333. The positive control was the reference compound A1 that was added in a dose response as well, additionally to 3 wells of only 20 μM representing the positive stimulator control. All wells were normalized with DMSO to a final concentration of 0.6% (0.2% end-concentration).
The immunoassay is done following the manufacturer's manual (Invitrogen, #A35603).
Additional information: For the immunoassay, MicroAmp™ EnduraPlate™ Optical 384-Well plates are used. Frozen supernatant is thawed and centrifuged for 5 minutes at 1000×g, both steps at 4° C. After centrifugation, required sample amount is taken from the top, and in a separate LightCycler V-bottom plate (working plate) diluted with assay dilution buffer, dilution factor depending on the PBS or CD3 condition but at least 1:3. IL-2 standard and blanks are prepared in the same V-bottom plate, standard with a range of […] (extended version). After preparation, […] of sample dilutions or standard/blanks are transferred to the optical 384-well plate (assay plate) and the 10 μl reaction protocol is being followed. For measurement, the QuantStudio 12K Flex system is used. Raw data is extracted and IL-2 concentrations are calculated with the Thermo Fisher online app (apps.thermofisher.com/apps/proquantum).
ELISA is done following the manufacturer's manual (Thermo Fisher Scientific, #88-7025-88).
Additional information: For the ELISA Nunc MaxiSorp 96 well plates are used. Frozen supernatant is thawed and centrifuged for 5 minutes at 1000×g, both steps at 4° C. After that, required sample amount is taken from the top, and in a separate V-bottom plate diluted with ELISA diluent, dilution factor depending on the PBS or CD3 condition. […]

[1] = molecular target: T1, hDGKalpha(1-735)-N-His (DGKA) (Homo sapiens, UniProt P23743); experiment: In vitro DGK inhibition assay (ADP-Glo, in house), DGK alpha; assay type: biochemical; details: isomer A; 4 nM DGK α, 25 μM ATP, 125 μM DLG in liposomes, 1 hour reaction; read-out: DGKalpha ADP Glo assay IC50
T1 construct: hDGKalpha(1-735)-N-His; His (N)
Method in brief: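 Sf21-expressed full-length His-tagged enzymes (DGKA 4 nM, DGKZ 2 nM) phosphorylated 125 μM DLG in PS/PC liposomes with ATP at 25 μM (DGKA) or 50 μM (DGKZ). After 1 h, ADP was measured by ADP-Glo luminescence. Compounds: 11-point 1:3 dilutions from 10 mM top concentration.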

[2] = Homo sapiens, T-cell, CD3 condition, 24 hours, 20 μM reference compound A1 = 100%, DMSO neutral control

T1 sequence (P23743 whole entry): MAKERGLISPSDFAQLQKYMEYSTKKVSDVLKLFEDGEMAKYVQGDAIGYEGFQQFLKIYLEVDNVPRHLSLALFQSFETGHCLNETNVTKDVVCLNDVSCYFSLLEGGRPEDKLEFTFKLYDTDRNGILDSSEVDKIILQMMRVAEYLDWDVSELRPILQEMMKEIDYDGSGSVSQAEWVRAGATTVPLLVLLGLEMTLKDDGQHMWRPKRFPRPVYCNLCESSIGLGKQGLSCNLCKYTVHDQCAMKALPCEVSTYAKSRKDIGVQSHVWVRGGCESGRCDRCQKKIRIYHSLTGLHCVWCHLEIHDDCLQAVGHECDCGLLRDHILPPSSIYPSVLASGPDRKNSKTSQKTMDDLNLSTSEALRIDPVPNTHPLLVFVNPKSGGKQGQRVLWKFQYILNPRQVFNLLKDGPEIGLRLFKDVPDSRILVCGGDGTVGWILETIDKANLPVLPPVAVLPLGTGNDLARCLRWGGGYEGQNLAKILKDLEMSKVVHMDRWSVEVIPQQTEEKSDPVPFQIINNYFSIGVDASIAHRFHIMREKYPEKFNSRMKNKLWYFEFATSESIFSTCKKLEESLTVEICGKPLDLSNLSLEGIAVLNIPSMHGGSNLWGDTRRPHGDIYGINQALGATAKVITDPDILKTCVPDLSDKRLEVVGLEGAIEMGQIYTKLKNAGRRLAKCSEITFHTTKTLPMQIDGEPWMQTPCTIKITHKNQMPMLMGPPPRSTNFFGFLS

Compound	EC50 (primary human T-cells; Homo sapiens, T-cell) [µM]	Emax (primary human T-cells; [2]) [%]	IC50 [1] [µM]	EC50 (primary human T-cells) [µM]	Emax IL2 (% activation) (primary human T-cells; CD3 condition, 24 hours, 20 μM reference compound A1 = 100%, DMSO neutral control)
CC(C)(C#N)c1nnc(-c2cc3c(cc2F)C(F)(F)C[C@@H](N)C(=O)N3Cc2ccc(-c3ccc(C(F)F)cn3)cc2)o1 (single isomer, unassigned) [Example 40]	> 10	27	15.3	–	–
CC(C)(C#N)c1nnc(-c2cc3c(cc2F)C(F)(F)C[C@@H](N)C(=O)N3Cc2ccc(-c3ccc(OC(F)F)cn3)cc2)o1 (single isomer, unassigned) [Example 41]	0.884	131	24	–	–
COC(=O)N1CC2CC(c3nnc(-c4cc5c(cc4F)C(F)(F)CC(N)C(=O)N5Cc4ccc(-c5noc(C(F)(F)F)n5)cc4)o3)(C2)C1 (single isomer, unassigned) [Example 42]	2.89	129	4.32	–	–
CC(C)(C)c1nnc(-c2cc3c(cc2F)C(F)(F)CC(N)C(=O)N3Cc2ccc(OC(F)(F)F)cc2)o1 (stereo not drawn) [Example 1, 3-amino-8-(5-tert-butyl-1,3,4-oxadiazol-2-yl)-5,5,7-trifluoro-1-[[4-(trifluoromethoxy)phenyl]methyl]-3,4-dihydro-1-benzazepin-2-one]	1.05	96	33.9	–	–
(3S)-3-amino-5,5,7-trifluoro-8-(5-morpholino-1,3,4-oxadiazol-2-yl)-1-[[4-(trifluoromethoxy)phenyl]methyl]-3,4-dihydro-1-benzazepin-2-one and (3R)-3-amino-5,5,7-trifluoro-8-(5-morpholino-1,3,4-oxadiazol-2-yl)-1-[[4-(trifluoromethoxy)phenyl]methyl]-3,4-dihydro-1-benzazepin-2-one [Example 3]	–	–	1.57	> 10	37
